Test results reported in US12324927B2, “Methods and systems for photodynamic therapy calculations” (THE TRUSTEES OF THE UNIVERSITY OF PENNSYLVANIA, priority 2018, dated 2025).
“And” between values parts separate entries of the source, which are not always exact repeats. Equal values may be shown once. “Also recorded” adds a separate entry of the source.

Key:
[1] = 10 min mock treatment in liquid tissue-simulating phantom with moving light source; type: physicochemical; settings: 3 mg kg^−1 Photofrin, 0-70 mW cm^−2
Protocol: Excitation light intensity varies vastly during PDT as the light source was constantly circulated around in the lung cavity by the physician. To test the performance of the PDT dosimetry system in measuring Photofrin fluorescence with varying excitation light intensities, a 10 min mock treatment was performed using liquid tissue-simulating phantom (μa=0.3 cm^−1 and μ′s=9.6 cm^−1) with known Photofrin concentration of 3 mg kg^−1 and a moving light source. The fluorescence spectra were measured at the surface of the phantom using isotropic detectors as described above. The treatment started with the treatment light wand positioned at a fixed distance above the phantom for 1 min. The average fluence rate measured on the surface was 50 mW cm^−2. Then the light wand was moved randomly over the top of the phantom to simulate the variations in the light fluence rate due to the movement of treatment light source in the pleural cavity during PDT treatment. […] The Photofrin concentrations obtained from measured Photofrin fluorescence spectra using data analysis method described above are plotted as a function of treatment time as shown in FIG. 4B. Each data point represents Photofrin concentration obtained from one fluorescence spectrum and the solid lines represent the average Photofrin concentration calculated for every 1 min of data. […]

[2] = Photofrin concentration and PDT dose at pleural cavity sites measured by fluorescence with 4-channel PDT dose dosimeter during Photofrin-mediated pleural PDT; set-up: species or system human; settings: in vivo, all measurement sites, 630 nm, 60 J cm^−2
[3] = tested on: radiation-induced fibrosarcoma (RIF) tumors; settings: larger tumors; cited from earlier work
[4] = tested on: radiation-induced fibrosarcoma (RIF) tumors; experiment: Photofrin-mediated PDT of RIF tumors: explicit dosimetry and tumor regrowth (cure index); type: in vivo, mice; settings: for Photofrin post: in tumor after PDT; for Photofrin post / Photofrin pre / [ROS]rx, mea / [ROS]rxcal / CI (cure index, 1−k/kctr): per mouse; for Photofrin pre: in tumor before PDT, 5 mg/kg i.v., 24 h, 5 mg/kg; for [ROS]rx, mea / [ROS]rxcal: 3 mm; for [ROS]rx, mea: measured [^3O2](t); for [ROS]rxcal: model-calculated [^3O2]; for CI (cure index, 1−k/kctr): tumor growth up to 14 days
Protocol: Radiation-induced fibrosarcomas (RIF) cells were cultured and injected in the right shoulder regions of 6-8 weeks old female C3H mice (NCI-Frederick, Frederick, MD). 30 μl were injected at a concentration of 1×10^7 cells/ml, as described previously.^8-11 Animals were under the care of the University of Pennsylvania Laboratory Animal Resources. All studies were approved by the University of Pennsylvania Institutional Animal Care and Use Committee. The fur of the treatment region was clipped prior to cell inoculation, and the treatment area was depilated with Nair (Church & Dwight Co., Inc., Ewing, NJ) at least 24 hours prior to measurements and treatment. Tumors were treated when they were 3˜5 mm in diameter. Mice were given a chlorophyll-free (alfalfa-free) rodent diet (Harlan laboratories Inc., Indianapolis, IN) at least 10 days prior to treatment to eliminate the fluorescence signal from chlorophyll-breakdown products, which have a similar range to the photosensitizer spectra obtained in this study. The photosensitizer fluorescence was used to determine the in vivo concentrations in this study, using methods described previously.^7-9
Treatment delivery was done using an optical fiber with a microlens attachment coupled to a diode laser with the appropriate wavelength for each photosensitizer. A 630 nm laser (Biolitec, Inc., East Longmeadow, MA, USA) was used for Photofrin after a 18˜24 hours drug-light interval. The in-air fluence rate (ϕair) is defined as the calculated irradiance determined by the laser power divided by the treatment area (1 cm diameter spot size). The in-air fluence was calculated by multiplying the in-air fluence rate by the treatment time. RIF tumor-bearing mice with no photosensitizer and no light excitation were used as controls (n=5).
Photofrin (Pinnacle Biologics, Chicago, Illinois) at a dosage of 5 mg/kg was injected through the mouse tail vein as described previously.^12,13 At a 24-h drug-light interval, superficial irradiation of the tumor was performed with a 630-nm laser (Biolitec AG., A-1030, Vienna). A microlens fiber was coupled to the laser to irradiate the tumor uniformly. Animals were assigned to four light dose groups, and each group was comprised of 2 to 3 subgroups with different ϕ. There were a total of 5 treatment groups: 50 J/cm^2 at 150 mW/cm^2, 250 J/cm^2 at 75 mW/cm^2, 135 J/cm^2 at 75 mW/cm^2, 75 J/cm^2 at 75 mW/cm^2, and 100 J/cm^2 at 150 mW/cm^2. Tumor-bearing mice that received neither light irradiation nor Photofrin were used as controls.
Following the drug-light interval of 18˜24 hours, measurements of light fluence rate, photosensitizer concentration and [O2] were performed. Photofrin fluorescence spectra was obtained using a custom-made multi-fiber contact probe before and after PDT.^14 The probe is connected to a 405 nm laser (Power Technology Inc., Little Rock, AR, USA) for the fluorescence excitation of Photofrin and a multichannel CCD spectrograph (InSpectrum, Princeton Instruments, Trenton, NJ, USA) for the collection of the spectra. The in vivo photosensitizer concentration was obtained by comparing the in vivo Photofrin spectra with those of phantoms with known photosensitizer concentrations. The attenuation of the fluorescence signal due to the light absorption and scattering by tissues was corrected by applying an empirical correction factor described elsewhere. The accuracy of in vivo measurements was validated by ex vivo measurements in separate mice.^15.16
The in vivo tissue oxygen partial pressure pO2 was measured during PDT treatment using a phosphorescence-based ^3O2 probe (OxyLite Pro, Oxford Optronix, Oxford, United Kingdom). A bare-fiber-type probe (NX-BF/O/E, Oxford Optronix, Oxford, United Kingdom) was placed inside the tumor at a 3 mm depth from the treatment surface. […]

photobleaching of Photofrin during mock treatment [1]: negligible photobleaching
Photofrin post ([4]; 75.00 mW/cm2 for 1500.00 s): 2.80 µM and 3.70 µM and 3.01 µM
Photofrin pre ([4]; 75.00 mW/cm2 for 1500.00 s): 6.50 µM and 6.70 µM and 6.00 µM
Substance: Photofrin
photobleaching of Photofrin during PDT treatment [2]: no significant photobleaching; also recorded: did not change significantly; also recorded: negligible photobleaching
PDT dose threshold from previous study [3]: 1200 mM J/cm^2
Photofrin post ([4]; 75.00 mW/cm2 for 1800.00 s): 4.90 µM and 3.35 µM and 3.00 µM and 3.50 µM
Photofrin post ([4]; 75.00 mW/cm2 for 3333.00 s): 3.02 µM and 2.44 µM and 2.48 µM and 2.20 µM
Photofrin post ([4]; 150.00 mW/cm2 for 333.00 s): 3.07 µM and 1.19 µM and 2.80 µM and 2.30 µM
Photofrin post ([4]; 150.00 mW/cm2 for 666.00 s): 2.50 µM and 3.54 µM and 4.88 µM and 3.49 µM
Photofrin pre ([4]; 75.00 mW/cm2 for 1800.00 s): 6.90 µM and 6.80 µM and 5.20 µM and 5.67 µM
Photofrin pre ([4]; 75.00 mW/cm2 for 3333.00 s): 6.47 µM and 4.20 µM and 4.54 µM and 4.50 µM
Photofrin pre ([4]; 150.00 mW/cm2 for 333.00 s): 6.80 µM and 3.07 µM and 5.84 µM and 5.10 µM
Photofrin pre ([4]; 150.00 mW/cm2 for 666.00 s): 6.40 µM and 7.20 µM and 7.84 µM and 6.79 µM
[ROS]rx, mea ([4]; 75.00 mW/cm2 for 1500.00 s): 0.82 mM and 0.73 mM and 0.65 mM
[ROS]rx, mea ([4]; 75.00 mW/cm2 for 1800.00 s): 1.13 mM and 0.96 mM and 1.00 mM and 1.10 mM
[ROS]rx, mea ([4]; 75.00 mW/cm2 for 3333.00 s): 1.40 mM and 1.41 mM and 1.39 mM and 1.20 mM
[ROS]rx, mea ([4]; 150.00 mW/cm2 for 333.00 s): 0.27 mM (2×) and 0.21 mM and 0.38 mM
[ROS]rx, mea ([4]; 150.00 mW/cm2 for 666.00 s): 0.77 mM and 0.79 mM and 0.88 mM and 0.78 mM
[ROS]rxcal ([4]; 75.00 mW/cm2 for 1500.00 s): 0.89 mM and 0.93 mM and 0.87 mM
[ROS]rxcal ([4]; 75.00 mW/cm2 for 1800.00 s): 1.39 mM and 1.24 mM and 1.07 mM and 1.09 mM
[ROS]rxcal ([4]; 75.00 mW/cm2 for 3333.00 s): 2.33 mM and 1.73 mM and 1.89 mM and 1.87 mM
[ROS]rxcal ([4]; 150.00 mW/cm2 for 333.00 s): 0.29 mM and 0.235 mM and 0.39 mM and 0.32 mM
[ROS]rxcal ([4]; 150.00 mW/cm2 for 666.00 s): 0.69 mM and 0.81 mM (2×) and 0.8 mM
CI (cure index, 1−k/kctr) ([4]; 75.00 mW/cm2 for 1500.00 s): 0.20 and 0.22 and 0.13
CI (cure index, 1−k/kctr) ([4]; 75.00 mW/cm2 for 1800.00 s): 1.00 and 0.56 and 0.64 and 0.82
CI (cure index, 1−k/kctr) ([4]; 75.00 mW/cm2 for 3333.00 s): 1.00
CI (cure index, 1−k/kctr) ([4]; 150.00 mW/cm2 for 333.00 s): 0.03 and 0.00 and 0.01 and 0.06
CI (cure index, 1−k/kctr) ([4]; 150.00 mW/cm2 for 666.00 s): 0.15 and 0.25 and 0.42 and 0.27
PDT dose threshold ([4]; this study): 439 mM J/cm^2
